Results from patent publication US4764515A, “Antitussive and central sedative composition of d-isomer of 3-(4-phenyl-1-piperazinyl)-1,2-propanediol” (priority 1983, dated 1988).
Entries after “also recorded” stand apart in the source; their conditions may differ. Where two headings read alike, the source gives them in different places.

Experiments:
Central Nervous System [1] = experiment: Electroencephalographic and electromiographic recording in the rat with chronically implanted electrodes (CNS activity); type: in vivo; conditions: mean ± SE, controls 4.86 ± 0.60
Text: (§1) Tests have been carried out to determine the CNS activity, by evaluating the influence on the sleeping time induced by barbiturates in the mouse, according to the method of F. M. Berger "Methods in Drug Evaluation" Proc. Int. Symp. Milan, September 1965, North Holland Pubbl. Co., and by recording the electroencephalographic and electromiographic curves in the rat with chronically implanted electrodes, calculating the time (in seconds) in the awakening and sleeping condition (including synchronized and unsynchronized sleep).
(§2) The compounds under exam have been administered orally, in the sleeping time test 30 minutes before the i.p. injection of 35 mg/kg of secobarbital, while in the electroencephalographic test at the beginning of recording.

oedema by ovoalbumin = experiment: Ovoalbumin oedema test in the rat (anti-inflammatory activity); type: in vivo; conditions: po, p.o. 1 h before phlogistic agent, C.L. 95%
Text: (§3) Screening for anti-inflammatory activity has been carried out employing the established carrageenin and ovoalbumin oedema tests in the rat, according to the methods described by C. A. Winter et al., Proc. Soc. Exp. Biol. Med., 111, 544, 1962 and Turne in "Screening Methods in Pharmacology" Acad. Press N.Y., cpt. 14, p. 164, 1965, respectively.
(§4) The compounds under exam have been administered by the oral route one hour before the injection of the phlogistic agent.

[2] = system: antiinflammatory activity; experiment: Antiinflammatory activity (overall statement); type: in vivo, rat; conditions: in words
Text: as §3, §4

Acute toxicity, rat = conditions: in vivo, 14 days from administration, C.L. 95%, read-out: DL50
Text: (§5) Acute toxicity (at 14 days from the admi-
(§6) nistration) of (±) racemic dropropizine
(§7) (+) dextrorotatory isomer and (-) laevorotatory isomer

oedema by carrageenin = experiment: Carrageenin oedema test in the rat (anti-inflammatory activity); type: in vivo; conditions: po, p.o. 1 h before phlogistic agent, C.L. 95%
Text: as §3, §4

antitussive activity = experiment: Antitussive activity (overall statement); type: in vivo, guinea pig; conditions: in words; versus racemic mixture; listed as laevorotatory isomer
Description: (§8) The results of the antitussive activity tests, carried out in the guinea pig after electrical stimulation of the vagus nerv and exposure for 5 minutes to a 5% citric acid aerosol according to the methods of R. M. Piekirning et al., Arzn.
(§9) The compounds under exam have been administered intravenously 5 minutes before the electric stimulation and orally 60 minutes before the citric acid aerosol.

[3] = system: electrical stimulation of the vagus nerv; experiment: Antitussive activity in the guinea pig after electrical stimulation of the vagus nerve; type: in vivo; conditions: Cavia porcellus, iv, intravenously 5 min before electric stimulation, C.F. 95%, read-out: DE50 Electric stimulus (antitussive effect)
Description: as §8, §9

Central Nervous System [4] = experiment: Influence on the sleeping time induced by barbiturates in the mouse (CNS activity); type: in vivo; conditions: 30 min before secobarbital 35 mg/kg i.p., mean ± SE, controls 22.58 ± 1.14
Text: as §1, §2

5% citric acid aerosol = experiment: Antitussive activity in the guinea pig after exposure to 5% citric acid aerosol; type: in vivo; conditions: Cavia porcellus, po, read-out: DE50 5% Citric acid (antitussive effect)
Acute toxicity, mouse = conditions: in vivo, 14 days from administration, C.L. 95%, read-out: DL50
Text: as §5, §6, §7

[5] = 3 h, 3th hour, read-out: DE50 Oedema by ovoalbumin 3th hour
[6] = 6 h, 6th hour, read-out: DE50 Oedema by ovoalbumin 6th hour
[7] = 1st hour, read-out: DE50 Oedema by ovoalbumin 1st hour
[8] = 3 h, 3th hour, read-out: DE50 Oedema by carrageenin 3th hour
[9] = 6 h, 6th hour, read-out: DE50 Oedema by carrageenin 6th hour
[10] = 1st hour, read-out: DE50 Oedema by carrageenin 1st hour
[11] = guinea pig, orally 60 min before citric acid aerosol (5 min exposure), C.F. 95%

SMILES	Time spent in the sleeping condition (Central Nervous System [1]; 25 mg/kg p.o.) [s]	Time spent in the sleeping condition (Central Nervous System [1]; 50 mg/kg p.o.) [s]	Time spent in the sleeping condition (Central Nervous System [1]; 100 mg/kg p.o.) [s]	ED50 (oedema by ovoalbumin; [5]) [mg/kg]	ED50 (oedema by ovoalbumin; [6]) [mg/kg]	ED50 (oedema by ovoalbumin; [7]) [mg/kg]	LD50 at 336 h (Acute toxicity, rat; ip) [mg/kg]	LD50 at 336 h (Acute toxicity, rat; po) [mg/kg]	ED50 (oedema by carrageenin; [8]) [mg/kg]	ED50 (oedema by carrageenin; [9]) [mg/kg]	ED50 (oedema by carrageenin; [10]) [mg/kg]	ED50 [3] [mg/kg]	Duration of the sleeping time induced by barbiturates (Central Nervous System [4]; 50 mg/kg p.o.) [min]	Duration of the sleeping time induced by barbiturates (Central Nervous System [4]; 100 mg/kg p.o.) [min]	Duration of the sleeping time induced by barbiturates (Central Nervous System [4]; 200 mg/kg p.o.) [min]	ED50 (5% citric acid aerosol; [11]) [mg/kg]	LD50 at 336 h (Acute toxicity, mouse; ip) [mg/kg]	LD50 at 336 h (Acute toxicity, mouse; po) [mg/kg]	also measured
OC[C@@H](O)CN1CCN(c2ccccc2)CC1 [(-), (-)-dropropizine]	5.8 ± 0.84	5.7 ± 0.48	13.68 ± 1.80	72.2	121	55.6	401	887	212	241	233	13.5	29.5 ± 2.59	54.4 ± 7.36	128.83 ± 17.14	151	408	1290	antiinflammatory activity [2]: unchanged antitussive and antiinflammatory activity; antitussive activity (antitussive activity): unchanged antitussive and antiinflammatory activity; also recorded: same antitussive activity as the racemic mixture
COc1ccc2c3c1O[C@H]1[C@@H](O)C=C[C@H]4[C@@H](C2)N(C)CC[C@@]341 [Codeine, codeine, reference compound]	–	–	–	–	–	–	–	–	–	–	–	–	–	–	–	–	–	–	ED50 (5% citric acid aerosol): 65.1 mg/kg
OCC(O)CN1CCN(c2ccccc2)CC1 (racemic) [(±), 3-(4-phenyl-1-piperazinyl)-1,2-propanediol]	–	–	–	28.5	37.1	23.6	393	607	77.9	117	39	11.7	118.83 ± 25.69	132.33 ± 13.16	134.16 ± 17.55	117	340	900	–
OC[C@H](O)CN1CCN(c2ccccc2)CC1 [(+), d-isomer of 3-(4-phenyl-1-piperazinyl)-1,2-propanediol]	6.18 ± 0.72	12.36 ± 0.9	28.92 ± 1.7	–	–	–	363	721	80.5	69.7	43.9	23.5	–	–	–	141	319	872	–
